Measured values as given in patent US20100267755A1, “PYRIMIDINE DERIVATIVES” (GLAXO GROUP LIMITED, priority 2001, published 2010).

Target: T1, microsomal h-COX2 (Homo sapiens, UniProt P35354)
T1 construct: made in house; host or cells: baculovirus infected SF9 cells
T1 sequence (P35354 18-604): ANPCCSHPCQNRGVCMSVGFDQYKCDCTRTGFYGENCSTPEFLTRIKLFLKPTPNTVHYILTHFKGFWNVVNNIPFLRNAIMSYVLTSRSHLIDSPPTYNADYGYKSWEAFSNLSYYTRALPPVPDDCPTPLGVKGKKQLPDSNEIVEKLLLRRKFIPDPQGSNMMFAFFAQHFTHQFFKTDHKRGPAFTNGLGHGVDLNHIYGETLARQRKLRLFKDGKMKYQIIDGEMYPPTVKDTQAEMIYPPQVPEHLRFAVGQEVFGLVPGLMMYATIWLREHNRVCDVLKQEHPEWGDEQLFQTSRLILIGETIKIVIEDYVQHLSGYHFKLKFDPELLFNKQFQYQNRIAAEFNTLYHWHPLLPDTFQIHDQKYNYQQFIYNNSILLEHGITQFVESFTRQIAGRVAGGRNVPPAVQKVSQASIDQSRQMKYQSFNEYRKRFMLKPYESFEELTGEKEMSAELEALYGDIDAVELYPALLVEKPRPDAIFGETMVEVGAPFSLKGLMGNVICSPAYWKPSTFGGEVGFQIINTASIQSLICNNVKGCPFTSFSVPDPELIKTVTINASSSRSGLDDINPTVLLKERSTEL
Experiment: Inhibitory activity against microsomal h-COX2 (PGE2 by EIA)
Assay type: biochemical
Details: microsomal preparation from baculovirus infected SF9 cells; 0.1 μM arachidonic acid; read-out: COX-2 IC50
Procedure: Inhibitory activity against microsomal h-COX2 was assessed against a microsomal preparation from baculovirus infected SF9 cells. An aliquot of microsomal preparation was thawed slowly on ice and a 1/40,000 dilution prepared from it into the assay buffer (sterile water, degassed with argon containing 100 mM HEPES (pH 7.4), 10 mM EDTA (pH7.4), 1 mM phenol, 1 mM reduced glutathione, 20 mg/ml gelatin and 0.001 mM Hematin). Once diluted the enzyme solution was then sonicated for 5 seconds (Branson sonicator, setting 4, 1 cm tip) to ensure a homogeneous suspension. […] Plates were then mixed and incubated at room temperature for 1 hour. Following the incubation period, 40 μl of 0.5 μM arachidonic acid was added to each well to give a final concentration of 0.1 μM. Plates were then mixed and incubated for exactly 10 minutes (room temperature) prior to addition of 25 μl 1M HCl (hydrochloric acid) to each well to stop the reaction. 25 μl of 1M NaOH (sodium hydroxide) was then added to each well to neutralise the solution prior to determination of PGE2 levels by enzyme immunoassay (EIA).

| Structure (SMILES) | IC50 [µM] |
| --- | --- |
| Cc1c(-c2ccc(S(C)(=O)=O)cc2)nc(NCc2ccccc2)nc1C(F)(F)F [Example 1, N-benzyl-5-methyl-4-[4-(methylsulfonyl)phenyl]-6-(trifluoromethyl)pyrimidin-2-amine] | 1.3 |
| Cc1c(-c2ccc(S(C)(=O)=O)cc2)nc(NCC(C)C)nc1C(F)(F)F [Example 2, N-isobutyl-5-methyl-4-[4-(methylsulfonyl)phenyl]-6-(trifluoromethyl)pyrimidin-2-amine] | 6.6 |
| Cc1c(-c2ccc(S(C)(=O)=O)cc2)nc(NCc2ccccc2O)nc1C(F)(F)F [Example 3] | 2.5 |
| Cc1c(-c2ccc(S(C)(=O)=O)cc2)nc(NCc2cccs2)nc1C(F)(F)F [Example 4] | 0.56 |
| Cc1ccc(CNc2nc(-c3ccc(S(C)(=O)=O)cc3)c(C)c(C(F)(F)F)n2)cc1 [Example 5] | 15.3 |

The remaining lines, values ahead:

| IC50 [µM] | Structure (SMILES) |
| --- | --- |
| 2.3 | Cc1c(-c2ccc(S(C)(=O)=O)cc2)nc(NC2CCCCC2)nc1C(F)(F)F [Example 6] |
| > 100 | Cc1c(-c2ccc(S(C)(=O)=O)cc2)nc(NCC2CCOCC2)nc1C(F)(F)F [Example 7] |
| 26.7 | CCCNc1nc(-c2ccc(S(C)(=O)=O)cc2)c(C)c(C(F)(F)F)n1 [Example 8] |
| > 98.6 | Cc1c(-c2ccc(S(C)(=O)=O)cc2)nc(NCc2ccccn2)nc1C(F)(F)F [Example 9] |
| 71.2 | Cc1c(-c2ccc(S(C)(=O)=O)cc2)nc(NCCc2ccccn2)nc1C(F)(F)F [Example 10] |
| 6.3 | CCCCNc1nc(-c2ccc(S(C)(=O)=O)cc2)c(C)c(C(F)(F)F)n1 [Example 11] |

Same assay, conditions: read-out: COX-2% inhibition

| inhibition at 10 µM [%] | Structure (SMILES) |
| --- | --- |
| 61 | Cc1c(-c2ccc(S(C)(=O)=O)cc2)nc(NCc2ccccc2)nc1C(F)(F)F [Example 1, N-benzyl-5-methyl-4-[4-(methylsulfonyl)phenyl]-6-(trifluoromethyl)pyrimidin-2-amine] |
| 43 | CCCCNc1nc(-c2ccc(S(C)(=O)=O)cc2)c(C)c(C(F)(F)F)n1 [Example 11] |
